Data as given in patent US11690922B2, “Lipid compound as well as lipid carrier, nucleic acid lipid nanoparticle composition and pharmaceutical preparation containing same” (Purecodon (Hong Kong) Biopharma Ltd., priority 2021, dated 2023).

How the values were obtained:
[1] = Particle size, PDI, Zeta and entrapment efficiency of each LNP@mRNA; assay type: physicochemical; conditions: for Entrapment efficiency (%) / PDI / Particle size (nm) / Zeta (mV): luciferase mRNA; for particle size of the LNP@mRNA (in words): LNP@mRNA with cholesterol, DSPC, PEG-DMG (Example 25), compared among compounds 1-8
Protocol: Compounds 1-8 were respectively dissolved in ethanol together with cholesterol, DSPC, PEG-DMG at a molar ratio of 50:38.5:10:1.5, luciferase mRNA was dissolved in a 50 mM citric acid buffered saline solution with a pH of 4.0, a volume ratio of the two solutions was 1:3, two phases were rapidly mixed by using microfluidics and a buffer environment was replaced into PBS with a pH of 7.4 by using dialysis or a tangential flow, so as to remove ethanol, and eight LNP@mRNAs were respectively prepared.
Thus, it can be seen that the entrapment efficiency to the nucleic acid drug by the compound provided by the present invention is high, and, using this compound as a carrier can improve the in-vivo delivery efficiency of the nucleic acid drug.
Compounds 13, and 14 and cholesterol, DOPC, and PEG-DMG were dissolved in ethanol at a molar ratio of 50:38.5:10:1.5, luciferase mRNA was dissolved in a 50 mM citric acid buffered saline solution with a pH of 4.0, a volume ratio of the two solutions was 1:3, two phases were mixed rapidly by using microfluidics and a buffer environment was replaced into PBS with a pH of 7.4 by using dialysis or a tangential flow, so as to remove ethanol, and two LNP@mRNAs were respectively prepared.

[2] = tested on: mice; experiment: Fluorescence intensity and organ distribution in mice 6 hours after injection of luciferase LNP@mRNA; assay type: in vivo; conditions: mouse, after 6 hours; for organ distribution of mRNA expression: intramuscular injection
Protocol: LNP@mRNAs prepared were respectively injected into a mouse body via a caudal vein or muscle, and after 6 hours, the fluorescence intensity and organ distribution in mice were tested. […] Therefore, a lipid compound with a specific structure can be chosen as a lipid carrier based on an organ in which the nucleic acid drug needs to be enriched.
LNP@mRNAs prepared were respectively injected into a mouse body via a caudal vein or muscle, and after 6 hours, the fluorescence intensity and organ distribution in mice were tested.

[3] = Zeta electric potentials of LNP@mRNA under different pHs; assay type: physicochemical; conditions: Example 26 LNP (cholesterol, DOPC, PEG-DMG), FIG. 7
[4] = LNP@mRNA of compound:cholesterol:DSPC:PEG-DMG 50:38.5:10:1.5 molar, PBS pH 7.4 (Example 25)
[5] = LNP@mRNA of compound:cholesterol:DOPC:PEG-DMG 50:38.5:10:1.5 molar, PBS pH 7.4 (Example 26)

Compound | Entrapment efficiency (%) [1, 4] | PDI [1, 4] | Particle size (nm) [1, 4] | Zeta (mV) [1, 4] | particle size of the LNP@mRNA (in words) [1] | further results
CCCCCCCCC(CCCCCC)C(=O)OCCCCOC(=O)CCN(CCO)CCC(=O)OCCCCOC(=O)C(CCCCCC)CCCCCCCC (stereo not drawn) [Compound 1] | 87% | 0.06 | 95 nm | −9 mV | small | 
CCCCCCCCC(CCCCCC)C(=O)OCCCCOC(=O)CCN(CCCO)CCC(=O)OCCCCOC(=O)C(CCCCCC)CCCCCCCC (stereo not drawn) [Compound 2] | 86% | 0.07 | 68 nm | −14 mV | small | 
CCCCCCCCC(CCCCCC)C(=O)OCCCCOC(=O)CCN(CCCCO)CCC(=O)OCCCCOC(=O)C(CCCCCC)CCCCCCCC (stereo not drawn) [Compound 3] | 86% | 0.07 | 76 nm | −15 mV | small | 
CCCCCCCCC(CCCCCC)C(=O)OCCCCOC(=O)CCN(CCCCCO)CCC(=O)OCCCCOC(=O)C(CCCCCC)CCCCCCCC (stereo not drawn) [Compound 4] | 82% | 0.09 | 77 nm | −12 mV | small | 
CCCCCCC(CCCC)C(=O)OCCCCOC(=O)CCN(CCO)CCC(=O)OCCCCOC(=O)C(CCCC)CCCCCC (stereo not drawn) [Compound 5] | 80% | 0.10 | 114 nm | −13 mV |  | 
CCCCCCC(CCCC)C(=O)OCCCCOC(=O)CCN(CCCO)CCC(=O)OCCCCOC(=O)C(CCCC)CCCCCC (stereo not drawn) [Compound 6] | 72% | 0.06 | 125 nm | −12 mV |  | 
CCCCCCC(CCCC)C(=O)OCCCCOC(=O)CCN(CCCCO)CCC(=O)OCCCCOC(=O)C(CCCC)CCCCCC (stereo not drawn) [Compound 7] | 82% | 0.05 | 116 nm | −18 mV |  | maximum fluorescence of intramuscular injection of LNP@mRNA (effect) ([2]; Example 25 LNP (DSPC), comparison among compounds 1-8, FIG. 1): better; organ distribution of mRNA expression ([2]; Example 25 LNP (DSPC), FIG. 2 and 3): manly expressed in spleen
CCCCCCC(CCCC)C(=O)OCCCCOC(=O)CCN(CCCCCO)CCC(=O)OCCCCOC(=O)C(CCCC)CCCCCC (stereo not drawn) [Compound 8] | 82% | 0.07 | 124 nm | −12 mV |  | 
CCCCCCC(CCCC)C(=O)OCCCCOC(=O)CCN(CCCn1ccnc1)CCC(=O)OCCCCOC(=O)C(CCCC)CCCCCC (stereo not drawn) [Compound 13] |  |  |  |  |  | Entrapment efficiency (%) [1, 5]: 85%; PDI [1, 5]: 0.03; Particle size (nm) [1, 5]: 156 nm; Zeta (mV) [1, 5]: −19 mV; maximum fluorescence of intramuscular injection of LNP@mRNA (effect) ([2]; Example 26 LNP (DOPC), comparison of compounds 13 and 14, FIG. 4): better; Zeta electric potential of the LNP@mRNA ([3]; pH about 2): strong positive electricity; Zeta electric potential of the LNP@mRNA ([3]; pH close to 5): electric neutrality; Zeta electric potential of the LNP@mRNA ([3]; pH greater than 8): strong electronegativity
CCCCCCCCC(CCCCCC)C(=O)OCCCCOC(=O)CCN(CCCn1ccnc1)CCC(=O)OCCCCOC(=O)C(CCCCCC)CCCCCCCC (stereo not drawn) [Compound 14] |  |  |  |  |  | Entrapment efficiency (%) [1, 5]: 87%; PDI [1, 5]: 0.07; Particle size (nm) [1, 5]: 122 nm; Zeta (mV) [1, 5]: −11 mV; organ distribution of mRNA expression ([2]; Example 26 LNP (DOPC), FIG. 5 and 6): mainly expressed in spleen
